Experiments:
[1] = Dex loading and release study in simulated perilymph; assay type: physicochemical; conditions: dialysis loading, PCA 30 mg and Dex 6 mg in DMSO
HEI-OC1 cells = assay: Cellular uptake test of CPPs; assay type: cell-based, mouse; conditions: rhodamine-labeled peptides 0.025 mg/mL, flow cytometry

Substance	percentage of Dex loading [1]	fluorescence intensity fold higher compared with Penetratin (HEI-OC1 cells) [fold]	fluorescence intensity fold higher compared with Tat (HEI-OC1 cells) [fold]
PHEA-g-C18-Arg8 [PCA nanoparticles]	16.8%±3.2	–	–
RRRRRRRR [Arg8]	–	18.8±3.2	16.1±1.3

Reference: publication PMC5117898 (International Journal of Nanomedicine, 2016)
